Reference: patent US7011772B2, “UV absorbing mixture with textile fiber affinity” (BASF Aktiengesellschaft, priority 2000, dated 2006)

What was measured:
[1] = UV protection factor UPF of cotton fabric after laundry aftertreatment in final rinse bath; settings: in Lenor care conditioner 1000 ppm, dried white cotton fabric, AS/NZS 4399:1996
Method: The UV protection factor UPF of textiles is determined in accordance with the Australian/New Zealand standard AS/NZS 4399:1996 using an in vitro method. It measures the UV transmission of the textile object. The spectral transmission can be used to determine the protection factor directly using the following equation: [formula] where • Sλ=spectral irradiation of the sun in the UV region at the wavelength λ • Eλ=spectral erythema action of the UV radiation at the wavelength λ • Tλ=spectral transmission of the textile object at the wavelength λ.
White woven cotton fabric having a basis weight of 100 g/mm^2 [sic] and a UV protection factor UPF of 4.50 was washed using a water hardness of 3 mmol/l. The laundering process was a main wash cycle at 40° C. with a commercially available laundry detergent (Ariel® Color) and a subsequent conditioning rinse. The conditioner used was a commercially available formulation (Lenor® care) in a dosage of 1000 ppm, based on the liquor. […] After the conditioning rinse cycle, the fabric was removed and its UV protection factor UPF was determined in the dried state.

[2] = Photostability of dyed cotton fabric after conditioning rinse (SUNTEST exposure, K/S values); settings: 200 ppm based on the liquor; 14 hours SUNTEST exposure under outdoor conditions; K/S at maximum of K/S spectra; higher = higher photostability
Method: Woven cotton fabric dyed with Reactive Black 5 to ⅓ standard depth of shade was treated in the conditioning rinse cycle with a commercially available formulation (Lenor® care, 1000 ppm based on the liquor) in the presence of an inventive UV absorber mixture M1, M2, M3, M4, M5, M6 or M7 (each at 200 ppm based on the liquor) in a liquor ratio of 12.5:1. After the conditioning rinse cycle, the dyed fabric was removed and tested for photostability in the dried state.
The samples were exposed in a SUNTEST® tabletop accelerated lighting unit (from Heraeus, Hanau) for 14 hours under outdoor conditions. A spectrophotometer incl. an integration sphere (“Lambda 900” from Perkin Elmer) was used to measure the reflectance spectra of dyeings before and after exposure. These reflectance spectra were converted in line with the Kubelka-Munk theory into K/S spectra (K=absorption coefficient, S=scattering coefficient). The photostabilities are evaluated with reference to the K/S values after 14 hour exposure relative to the K/S values prior to exposure (K/S in each case at the maximum of the K/S spectra). The higher the value in % reported in Table 2, the higher the photostability.

With `CCCCC(CC)COC(=O)C(C#N)=C(c1ccccc1)c1ccccc1` (stereo not shown) [Mixture A1, 2-ethylhexyl 2-cyano-3,3-diphenylacrylate] the “UPF with 50 ppm” value ([1]; 50 ppm UV absorber based on the liquor) was 8.6, the “UPF with 100 ppm” value ([1]; 100 ppm UV absorber based on the liquor) was 13.5 and the “UPF with 200 ppm” value ([1]; 200 ppm UV absorber based on the liquor) was 21.1. The “K/S (14 h)/K/S (0 h) × 100%” value [2] was 67.7%.
